Assay results: patent US20090203050A1 (The Regents of the University of California, priority 2005, published 2009)
Entries after “also recorded” stand apart in the source; their conditions may differ.

B1: TRAIL: tumor necrosis factor (TNF)-related apoptosis-inducing ligand (protein, UniProt P50591 1-281, looked up)
Tumor necrosis factor ligand …: MAMMEVQGGPSLGQTCVLIVIFTVLLQSLCVAVTYVYFTNELKQMQDKYSKSGIACFLKEDDSYWDPNDEESMNSPCWQVKWQLRQLVRKMILRTSEETISTVQEKQQNISPLVRERGPQRVAAHITGTRGRSNTLSSPNSKNEKALGRKINSWESSRSGHSFLSNLHLRNGELVIHEKGFYYIYSQTYFRFQEEIKENTKNDKQMVQYIYKYTSYPDPILLMKSARNSCWSKDAEYGLYSIYQGGIFELKENDRIFVSVTNEHLIDMDHEASFFGAFLVG

Columns and labels:
[1] = tested on: Daudi-RR1; assay: DNA fragmentation (PI) apoptosis assay, Daudi-RR1; conditions: for resistance of clone compared with wt cells / resistance of clone compared with wt cells, value in parentheses / apoptosis, drug alone: 18 h; for apoptosis, drug after DHMEQ pre-treatment: DHMEQ 20 μg/ml 2 h, then highest drug concentration 18 h; for apoptosis, drug alone: highest drug concentration
Experimental: (§1) Percentage of apoptotic cells was determined by evaluation of propidium iodide (PI) stained preparations of cells using an EpicXL flow-cytometer. Cellular debris was excluded from analysis by raising the forward scatter threshold, and DNA content of the intact nuclei was recorded on a logarithmic scale (Nicoletti, I. et al., J. Immunol. Methods, 139:271-9 (1991)). Percent apoptosis is represented as percentage of hypodiploid cells accumulated at sub-G0 phase of cell cycle.
(§2) Cells were left either untreated or pre-treated with DHMEQ (36), bortezomib (Goy, A. et al., Clin. Lymphoma, 4:230-7 (2004)) and PD098059 (Alessi, D. et al., J. Biol. Chem., 270:27489-94 (1995)). Escalating concentrations of various drugs were then added and the percentage of apoptosis was measured.

[2] = tested on: Ramos-RR1; assay: DNA fragmentation (PI) apoptosis assay, Ramos-RR1; conditions: for resistance of clone compared with wt cells / resistance of clone compared with wt cells, value in parentheses / apoptosis, drug alone: 18 h; for apoptosis, drug after DHMEQ pre-treatment: DHMEQ 20 μg/ml 2 h, then highest drug concentration 18 h; for apoptosis, drug alone: highest drug concentration
Experimental: as §1, §2

[3] = tested on: Ramos wt cells; assay: DNA fragmentation (PI) apoptosis assay, Ramos wt; type: cell-based, human
[4] = tested on: 2F7, Ramos and Daudi wild type and RR clones; assay: TRAIL-mediated apoptosis in B-NHL cell lines and RR clones (DNA fragmentation); type: cell-based, human; conditions: for sensitization to TRAIL-induced apoptosis: inhibitor pretreatment 2 h, then TRAIL 18 h, rituximab-sensitive and -resistant cells
Excerpt: Patients with B-NHL respond initially to conventional chemotherapy and/or to immunotherapy with rituximab (alone or in combination with chemotherapy). However, patients develop resistance to these modalities and novel approaches are needed. TRAIL is a cytotoxic molecule that exerts selective anti-tumor cytotoxic activity with minimal toxicity to normal tissues. Further, TRAIL or agonist monoclonal antibody (mAb) to TRAIL receptors, DR4 and DR5, are currently being tested clinically. The present study investigated the sensitivity of B-NHL cell lines to TRAIL-mediated apoptosis using the AIDS-related NHL (ARL) B-cell line, 2F7, and the B-NHL cell lines, Ramos and Daudi. Also, to recapitulate various aspects of acquired rituximab-resistance, we have generated rituximab-resistant (RR) clones from the parental wild type (wt) cells. […] We then examined means to reverse […] resistance. We and others have reported that inhibition of NFκB activity can sensitize TRAIL-resistant tumor cells to TRAIL-induced apoptosis. […] Both the rituximab-sensitive and rituximab-resistant tumor cells were sensitized by these inhibitors, though higher concentrations were required for sensitization of the RR clones. […] Based on the findings, patients with resistant B-NHL can be treated with combination of TRAIL/anti-DR4 or DR5 mAb and NFκB inhibitors. Alternatively, these patients can be treated with agents that up-regulate TRAIL expression on host effectors (e.g., T cells, NK cells) in combination with NFκB inhibitors.

[5] = tested on: RR clones; assay: DNA fragmentation apoptosis assay, RR clones (pooled statements); type: cell-based, human; conditions: drugs e.g. Paclitaxel, Vincristine, VP-16, CDDP, Adriamycin
Experimental: Thus, we examined if such sensitizing agents can reverse the resistance in the RR clones.
as §1, §2

[6] = tested on: Daudi wt cells; assay: DNA fragmentation (PI) apoptosis assay, Daudi wt; type: cell-based, human
[7] = tested on: Ramos and Daudi; conditions: ERK1/2 pathway inhibitors; cited from earlier work
[8] = tested on: NF-κB and AP-1 DBA; assay: EMSA in RR clones; type: cell-based, human
Experimental: FIG. 8. […] A. Total cell lysates (40 μg) were subjected to western blot analysis using phospho-specific Abs for various components of the NF-κB and ERK1/2 pathways. B. The kinase activity of the IKK complex using IκB-α peptide (aa 1-50 including S^32/36) and ERK1/2 using MAPK kinase substrates 4 (aa 172-192) using immune-complex kinase assay. C. […] 10 μg of nuclear lysates were subjected to EMSA (n=2) (19, 20).
The DBAs were evaluated using biotin-labeled oligonucleotide AP-1 (5′-[…]-3′) (Lee, W et al., Cell, 49:741-52 (1987)) and NF-κB (5′-[…] […]-3′) probes (Harada, H. et al., Mol. Cell Biol., 14:1500-9 (1994)) using EMSA kit (Panomics, Inc., Redwood City, Calif.) according to manufacturer's instructions. 10 μg of nuclear extracts were subjected to […] 5% PAGE and developed (Jazirehi, A. et al., Cancer Research, 64:7117-26 (2004); Jazirehi, A. et al., Cancer Research, 65:264-76 (2005)).
Next, alterations in the DBA of NF-κB and AP-1 in the clones were examined.

[9] = tested on: 2F7RR1 clone; assay: Chemotherapeutic drug-induced apoptosis in 2F7RR1; type: cell-based
Excerpt: (§3) Accordingly, we examined whether inhibition of Bcl-2 in 2F7RR1 can reverse chemoresistance. Since Bcl-2 is under the transcriptional regulation of NFκB, we examined the effect of the NF-κB inhibitors Bortezomib and DHMEQ (Kikuchi, et al., Cancer Research, 63:107 (2003)).
(§4) The mechanism by which B-NHL patients resist treatment is not known. […] We examined the effect of various chemical inhibitors of this signaling pathway on chemosensitization.

[10] = tested on: p38MAPK/NF-κB/YY1/STAT3 signaling pathways, Bcl-2; assay: Molecular analysis of signaling in 2F7RR1; type: cell-based; conditions: 2F7-RR1
Excerpt: as §3, §4

[11] = wt Ramos, 2MAM-A3 15 μg/ml 7 h, paclitaxel 10 nM 18 h
[12] = Ramos-RR1, 2MAM-A3 35 μg/ml 7 h, paclitaxel 10 nM 18 h

Molecule | resistance of clone compared with wt cells ([1]; Daudi-RR1) [folds] | resistance of clone compared with wt cells, value in parentheses ([1]; Daudi-RR1) [%] | apoptosis, drug after DHMEQ pre-treatment ([1]; Daudi-RR1) [%] | apoptosis, drug alone ([1]; Daudi-RR1) [%] | resistance of clone compared with wt cells ([2]; Ramos-RR1) [folds] | resistance of clone compared with wt cells, value in parentheses ([2]; Ramos-RR1) [%] | apoptosis, drug after DHMEQ pre-treatment ([2]; Ramos-RR1) [%] | apoptosis, drug alone ([2]; Ramos-RR1) [%] | sensitization of RR clones to various chemotherapeutic drugs [5] | also measured
CC[C@]1(O)C[C@H]2CN(CCc3c([nH]c4ccccc34)[C@@](C(=O)OC)(c3cc4c(cc3OC)N(C=O)[C@H]3[C@@](O)(C(=O)OC)[C@H](OC(C)=O)[C@]5(CC)C=CCN6CC[C@]43[C@@H]65)C2)C1 [vincristine] | 1.66 | 140 | 36.6±2.3 | 14.2±1.7 | 1.42 | 130 | 53.5±2.2 | 15.3±1.1 |  | 
CC(=O)O[C@H]1C(=O)[C@@]2(C)[C@H]([C@H](OC(=O)c3ccccc3)[C@]3(O)C[C@H](OC(=O)[C@H](O)[C@@H](NC(=O)c4ccccc4)c4ccccc4)C(C)=C1C3(C)C)[C@]1(OC(C)=O)CO[C@@H]1C[C@@H]2O [paclitaxel] | 1.63 | 139 | 42.0±1.9 | 14.9±3.2 | 1.54 | 136 | 46.5±2.3 | 20.4±3.0 |  | apoptosis, paclitaxel alone ([3]; wt Ramos, paclitaxel 10 nM 18 h): 13.6±1.3%; apoptosis, paclitaxel alone ([2]; Ramos-RR1, paclitaxel 10 nM 18 h): 8.42±2.1%
CC(C)(C)c1ccc(S(=O)(=O)/C=C/C#N)cc1 [Bay 11-7085] |  |  |  |  |  |  |  |  | sensitized | sensitization to TRAIL-induced apoptosis [4]: significant augmentation of apoptosis and synergy was achieved
COc1cc([C@@H]2c3cc4c(cc3[C@@H](O[C@@H]3O[C@@H]5CO[C@@H](C)O[C@H]5[C@H](O)[C@H]3O)[C@H]3COC(=O)[C@H]23)OCO4)cc(OC)c1O [VP-16] | 2.97 | 167 | 32.0±2.2 | 11.8±0.9 | 1.8 | 145 | 53.0±2.6 | 10.3±1.1 |  | 
CCCC[C@H]1C(=O)O[C@H](C)[C@H](NC(=O)c2cccc(NC=O)c2OC)C(=O)O[C@@H](C)[C@@H]1OC(=O)CC(C)C [2MAM-A3, 2-methoxyantimycin-A3] |  |  |  |  |  |  |  |  | sensitized | apoptosis, paclitaxel after 2MAM-A3 pre-treatment [3, 11]: 26.7±2.2%; augmentation of paclitaxel cytotoxicity [3, 11]: 1.96 folds; augmentation of paclitaxel cytotoxicity ([6]; 2MAM-A3 15 μg/ml 7 h, paclitaxel 10 nM 18 h): 1.98 fold; augmentation of paclitaxel cytotoxicity ([1]; Daudi-RR1, 2MAM-A3 35 μg/ml 7 h, paclitaxel 10 nM 18 h): 3.2 folds; apoptosis, paclitaxel after 2MAM-A3 pre-treatment [2, 12]: 39.7±2.4%; augmentation of paclitaxel cytotoxicity [2, 12]: 4.71 folds
cross-linked rituximab: 50 μg/ml anti-human immunoglobulin (hIg)+20 μg/ml rituximab |  |  |  |  |  |  |  |  |  | apoptosis ([3]; Ramos wt, 50 μg/ml anti-hIg + 20 μg/ml rituximab, 24 h): 29.2±2.4%; apoptosis ([6]; 50 μg/ml anti-hIg + 20 μg/ml rituximab, 24 h): 32.8±2.1%; higher threshold to cross-linked rituximab-mediated apoptosis vs wt ([1]; Daudi-RR1): 2.56 folds; higher threshold to cross-linked rituximab-mediated apoptosis vs wt ([2]; Ramos-RR1): 2.86 folds
O=C1Nc2ccc(I)cc2/C1=C/c1cc(Br)c(O)c(Br)c1 [GW 5074] |  |  |  |  |  |  |  |  |  | sensitization to drug-induced apoptosis [7]: also sensitize the cells
COc1cccc(-c2cc(=O)c3ccccc3o2)c1N [PD098059, [2-(2′-amino-3′-methoxyphenyl)-oxanaphthalen-4-one]] |  |  |  |  |  |  |  |  | sensitized | NF-κB and AP-1 DBA (EMSA) [8]: preferentially reduced; enhanced cytotoxicity of drugs by inhibitor [1]: 1.5-2.7 folds; sensitization to drug-induced apoptosis [7]: also sensitize the cells; enhanced cytotoxicity of drugs by inhibitor [2]: 1.8-3.1 folds
C[S+]([O-])c1ccc(-c2nc(-c3ccncc3)c(-c3ccc(F)cc3)[nH]2)cc1 (stereo not shown) [SB 203580] |  |  |  |  |  |  |  |  | sensitized | 
CC(C)C[C@H](NC(=O)[C@H](Cc1ccccc1)NC(=O)c1cnccn1)B(O)O [Bortezomib] |  |  |  |  |  |  |  |  | sensitized | chemosensitization to drug-induced apoptosis (taxol, vincristine, ADR, CDDP, VP16) [9]: reversal of resistance; also recorded: significantly sensitized; effect on NF-kB, YY1 and Bcl-2 expression [10]: inhibition of NF-kB, YY1 and downregulated Bcl-2 expression; enhanced cytotoxicity of drugs by inhibitor [1]: 1.7-3.3 folds; enhanced cytotoxicity of drugs by inhibitor [2]: 1.8-5.1 folds; sensitization to TRAIL-induced apoptosis [4]: significant augmentation of apoptosis and synergy was achieved
N.N.[Cl][Pt][Cl] [CDDP] | 1.95 | 149 | 36.6±0.9 | 25.7±3.1 | 1.41 | 120 | 61.2±2.1 | 19.0±0.7 |  | 
N#CC(=C(/N)Sc1ccccc1N)/C(C#N)=C(/N)Sc1ccccc1N [UO126] |  |  |  |  |  |  |  |  |  | sensitization to drug-induced apoptosis [7]: also sensitize the cells
COc1cccc2c1C(=O)c1c(O)c3c(c(O)c1C2=O)C[C@@](O)(C(=O)CO)C[C@@H]3O[C@H]1C[C@H](N)[C@H](O)[C@H](C)O1 [ADR] | 1.94 | 149 | 40.5±3.1 | 12.4±2.5 | 2.3 | 158 | 32.4±2.9 | 14.3±3.3 |  | 
B1 |  |  |  |  |  |  |  |  |  | sensitivity to TRAIL-mediated apoptosis ([4]; wild type and RR1 cells, TRAIL 1-250 ng/ml, 18 h): resistant
